Results on five compounds are retold here after patent US9340590B2 (priority 2011, dated 2016).

One series deals with hNav1.7 (Homo sapiens, UniProt Q15858). The series can be described thus: cell-based. Format: cell-based. The settings on record: IonWorks Quattro; clamped to −110 mV, depolarized to −10 mV, 5 min after compound; n=2; read-out: IWQ Use Nav1.7.
A further series concerns the target hNav1.5 (Homo sapiens, UniProt Q14524). The experiment in a line: cell-based. Particulars: IonWorks Quattro; clamped to −110 mV, depolarized to −10 mV, 5 min after compound; n=2; read-out: IWQ Use Nav1.5. For orientation: In patch-clamp work, channel activity is measured electrically.
In the next series the target is hNav1.4 (Homo sapiens, UniProt P35499). The experiment in a line: cell-based. The settings on record: IonWorks Quattro; clamped to −110 mV, depolarized to −10 mV, 5 min after compound; n=2; read-out: IWQ Use Nav1.4.
In the next series the target is hNav1.3 (Homo sapiens, UniProt Q9NY46). The experiment in a line: cell-based. The settings on record: IonWorks Quattro; clamped to −110 mV, depolarized to −10 mV, 5 min after compound; n=2; read-out: IWQ Use Nav1.3.
Series [1] concerns locomotor activity in male CD-1 mice. Particulars: 5 mg/kg s.c.; for total basic movement / total fine movement / total rearing / total time rearing: later studies (FIGS. 99-110), 1-hour pre-treatment.

Positions of bridges follow the written chain, without caps; N, C: chain ends. Residues, ends and D or L forms follow the SMILES beside them.

hNav1.4, sequence (P35499 whole entry, looked up): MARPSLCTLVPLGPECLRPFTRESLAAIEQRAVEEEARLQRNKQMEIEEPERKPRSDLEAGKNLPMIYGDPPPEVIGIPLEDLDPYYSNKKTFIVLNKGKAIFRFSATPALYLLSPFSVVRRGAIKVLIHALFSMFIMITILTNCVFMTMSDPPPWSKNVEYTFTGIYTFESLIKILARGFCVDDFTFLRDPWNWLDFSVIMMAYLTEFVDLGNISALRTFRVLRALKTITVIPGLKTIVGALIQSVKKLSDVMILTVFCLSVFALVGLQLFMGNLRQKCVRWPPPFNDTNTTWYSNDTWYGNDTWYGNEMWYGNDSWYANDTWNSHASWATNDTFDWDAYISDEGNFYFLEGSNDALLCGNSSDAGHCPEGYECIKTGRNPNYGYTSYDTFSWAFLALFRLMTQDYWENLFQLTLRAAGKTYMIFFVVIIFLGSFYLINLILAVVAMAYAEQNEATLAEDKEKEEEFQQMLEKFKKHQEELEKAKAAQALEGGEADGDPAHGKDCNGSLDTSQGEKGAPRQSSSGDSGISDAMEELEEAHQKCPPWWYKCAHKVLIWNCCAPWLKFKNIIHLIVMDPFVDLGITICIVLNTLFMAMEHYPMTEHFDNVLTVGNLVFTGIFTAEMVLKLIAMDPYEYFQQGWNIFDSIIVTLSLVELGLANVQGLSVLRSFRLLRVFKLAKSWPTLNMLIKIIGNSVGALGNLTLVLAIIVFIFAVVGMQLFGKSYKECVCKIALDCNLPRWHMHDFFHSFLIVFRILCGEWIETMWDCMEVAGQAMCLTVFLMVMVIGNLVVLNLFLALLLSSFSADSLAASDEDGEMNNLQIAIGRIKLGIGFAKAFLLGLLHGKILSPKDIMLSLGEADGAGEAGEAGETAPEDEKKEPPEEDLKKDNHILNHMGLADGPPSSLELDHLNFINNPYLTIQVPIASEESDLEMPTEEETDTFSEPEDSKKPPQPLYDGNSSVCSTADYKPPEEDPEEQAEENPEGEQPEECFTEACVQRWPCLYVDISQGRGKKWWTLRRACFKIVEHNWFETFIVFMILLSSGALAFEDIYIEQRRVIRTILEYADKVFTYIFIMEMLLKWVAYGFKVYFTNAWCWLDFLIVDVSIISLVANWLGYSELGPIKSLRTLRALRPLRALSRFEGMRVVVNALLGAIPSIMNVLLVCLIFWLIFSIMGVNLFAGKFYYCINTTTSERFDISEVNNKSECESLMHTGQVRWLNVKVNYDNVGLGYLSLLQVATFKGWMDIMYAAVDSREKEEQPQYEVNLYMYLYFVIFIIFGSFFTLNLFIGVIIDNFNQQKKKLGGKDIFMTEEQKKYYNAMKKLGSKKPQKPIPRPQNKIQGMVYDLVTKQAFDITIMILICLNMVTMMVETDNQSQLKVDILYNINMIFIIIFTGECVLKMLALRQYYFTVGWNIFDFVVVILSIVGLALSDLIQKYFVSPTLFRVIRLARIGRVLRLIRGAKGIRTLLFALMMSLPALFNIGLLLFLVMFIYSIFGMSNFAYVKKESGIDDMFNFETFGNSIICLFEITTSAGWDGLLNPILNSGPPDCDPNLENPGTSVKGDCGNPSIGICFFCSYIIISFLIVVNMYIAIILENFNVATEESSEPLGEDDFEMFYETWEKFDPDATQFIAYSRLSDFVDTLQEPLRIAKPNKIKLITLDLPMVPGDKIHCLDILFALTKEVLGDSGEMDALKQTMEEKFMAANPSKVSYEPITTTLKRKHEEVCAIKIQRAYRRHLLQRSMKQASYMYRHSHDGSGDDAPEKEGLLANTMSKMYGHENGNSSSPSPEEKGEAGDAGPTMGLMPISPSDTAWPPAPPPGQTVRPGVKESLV
hNav1.3, sequence (Q9NY46 whole entry, looked up): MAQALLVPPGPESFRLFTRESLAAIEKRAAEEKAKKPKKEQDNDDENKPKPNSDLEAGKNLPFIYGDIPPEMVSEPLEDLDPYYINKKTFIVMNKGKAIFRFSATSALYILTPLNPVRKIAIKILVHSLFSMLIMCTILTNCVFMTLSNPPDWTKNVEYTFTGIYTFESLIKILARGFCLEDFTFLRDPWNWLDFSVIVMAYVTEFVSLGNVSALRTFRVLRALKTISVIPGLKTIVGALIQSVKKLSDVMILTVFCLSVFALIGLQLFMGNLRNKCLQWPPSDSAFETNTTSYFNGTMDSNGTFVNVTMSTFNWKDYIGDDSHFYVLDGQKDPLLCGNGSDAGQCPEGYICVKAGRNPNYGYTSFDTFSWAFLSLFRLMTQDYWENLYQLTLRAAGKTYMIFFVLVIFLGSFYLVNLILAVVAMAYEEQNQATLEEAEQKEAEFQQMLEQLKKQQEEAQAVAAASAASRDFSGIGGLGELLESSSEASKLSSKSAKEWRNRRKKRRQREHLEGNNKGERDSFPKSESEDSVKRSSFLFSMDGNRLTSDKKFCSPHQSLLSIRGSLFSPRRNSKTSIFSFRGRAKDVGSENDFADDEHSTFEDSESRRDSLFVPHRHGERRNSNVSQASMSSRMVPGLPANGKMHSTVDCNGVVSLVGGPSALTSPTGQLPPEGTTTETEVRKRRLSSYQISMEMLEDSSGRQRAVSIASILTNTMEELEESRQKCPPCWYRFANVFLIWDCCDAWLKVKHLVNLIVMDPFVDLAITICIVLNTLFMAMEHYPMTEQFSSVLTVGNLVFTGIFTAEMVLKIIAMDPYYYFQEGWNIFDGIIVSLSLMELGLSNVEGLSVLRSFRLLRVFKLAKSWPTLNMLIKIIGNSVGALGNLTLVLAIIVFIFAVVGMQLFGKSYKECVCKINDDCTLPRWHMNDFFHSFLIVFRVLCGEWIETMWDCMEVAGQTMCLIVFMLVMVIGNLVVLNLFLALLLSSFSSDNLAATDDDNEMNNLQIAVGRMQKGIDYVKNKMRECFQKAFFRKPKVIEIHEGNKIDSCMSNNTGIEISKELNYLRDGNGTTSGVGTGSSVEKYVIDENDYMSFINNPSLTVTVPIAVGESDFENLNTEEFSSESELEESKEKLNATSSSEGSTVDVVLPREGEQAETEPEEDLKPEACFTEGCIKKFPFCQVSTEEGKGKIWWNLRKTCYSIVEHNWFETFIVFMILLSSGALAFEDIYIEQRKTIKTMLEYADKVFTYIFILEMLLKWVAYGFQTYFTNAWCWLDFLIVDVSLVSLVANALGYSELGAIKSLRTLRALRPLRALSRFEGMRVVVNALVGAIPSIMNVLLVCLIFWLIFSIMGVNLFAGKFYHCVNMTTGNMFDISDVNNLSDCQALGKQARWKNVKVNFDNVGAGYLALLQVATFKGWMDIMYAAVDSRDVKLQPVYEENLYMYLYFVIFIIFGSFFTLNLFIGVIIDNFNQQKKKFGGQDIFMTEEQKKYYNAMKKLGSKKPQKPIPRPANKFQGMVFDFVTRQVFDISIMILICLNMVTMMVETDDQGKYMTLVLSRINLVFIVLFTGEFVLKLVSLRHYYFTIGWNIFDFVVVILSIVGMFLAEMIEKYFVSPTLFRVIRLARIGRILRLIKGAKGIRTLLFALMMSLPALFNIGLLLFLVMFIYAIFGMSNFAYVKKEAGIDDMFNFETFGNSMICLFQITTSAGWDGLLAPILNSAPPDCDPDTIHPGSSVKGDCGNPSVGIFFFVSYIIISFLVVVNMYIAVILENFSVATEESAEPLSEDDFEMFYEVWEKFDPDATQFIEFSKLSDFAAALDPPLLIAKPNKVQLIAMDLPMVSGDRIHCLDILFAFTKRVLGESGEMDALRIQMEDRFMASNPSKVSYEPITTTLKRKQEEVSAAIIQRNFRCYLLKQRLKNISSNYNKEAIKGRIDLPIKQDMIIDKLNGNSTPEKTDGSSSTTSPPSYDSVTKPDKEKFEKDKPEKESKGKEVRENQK

`CC(C)C[C@H](NC(=O)[C@H](CCCCN)NC(=O)[C@H](Cc1ccc(O)cc1)NC(=O)[C@H](CCCCN)NC(=O)[C@@H]1CSSC[C@@H]2NC(=O)[C@H](CCCCN)NC(=O)[C@H](CC(=O)O)NC(=O)[C@H](CC(N)=O)NC(=O)[C@H](CC(=O)O)NC(=O)[C@@H]3CCCN3C(=O)[C@H](CC(=O)O)NC(=O)[C@@H]3CSSC[C@H](NC(=O)[C@H](CCCCN)NC(=O)[C@H](Cc4ccc(O)cc4)NC(=O)CNC(=O)[C@H](CCC(=O)O)NC(=O)[C@H](CSSC[C@H](NC(=O)[C@@H](N)CC(=O)O)C(=O)N[C@@H](CC(C)C)C(=O)NCC(=O)N[C@@H](Cc4c[nH]c5ccccc45)C(=O)N[C@@H](Cc4ccccc4)C(=O)N[C@@H](CCCCN)C(=O)NCC(=O)N3)NC2=O)C(=O)N[C@@H](CC(N)=O)C(=O)N[C@@H](CCCNC(=N)N)C(=O)N[C@@H](CCCNC(=N)N)C(=O)N[C@@H](CC(=O)O)C(=O)N[C@@H](CCCCN)C(=O)N[C@@H](Cc2c[nH]c3ccccc23)C(=O)N1)C(N)=O` [SEQ ID NO: 468] (H-DCLGWFKGCDPDNDKCCEGYKCNRRDKWCKYKL-NH2; disulfide 2-17, 9-22, 16-29): the IC50 at hNav1.7 came to 8.93 µM; on hNav1.5, 7.8 µM; at hNav1.4 it was 20 µM; at hNav1.3 it was 9.37 µM.

Regarding `CC(C)C[C@H](NC(=O)[C@H](CCCCN)NC(=O)[C@H](Cc1ccc(O)cc1)NC(=O)[C@H](CCCCN)NC(=O)[C@@H]1CSSC[C@@H]2NC(=O)[C@H](CCCCN)NC(=O)[C@H](CC(=O)O)NC(=O)[C@H](CC(N)=O)NC(=O)[C@H](CC(=O)O)NC(=O)[C@@H]3CCCN3C(=O)[C@H](CC(=O)O)NC(=O)[C@@H]3CSSC[C@H](NC(=O)[C@H](CCCCN)NC(=O)[C@H](Cc4ccc(O)cc4)NC(=O)[C@H](CC(N)=O)NC(=O)[C@H](CCC(=O)O)NC(=O)[C@H](CSSC[C@H](NC(=O)[C@@H](N)CC(=O)O)C(=O)N[C@@H](CC(C)C)C(=O)NCC(=O)N[C@@H](Cc4c[nH]c5ccccc45)C(=O)N[C@@H](Cc4ccccc4)C(=O)N[C@@H](CCCCN)C(=O)NCC(=O)N3)NC2=O)C(=O)N[C@@H](CC(N)=O)C(=O)N[C@@H](CCCNC(=N)N)C(=O)N[C@@H](CCCNC(=N)N)C(=O)N[C@@H](CCC(=O)O)C(=O)N[C@@H](CCC(N)=O)C(=O)N[C@@H](Cc2c[nH]c3ccccc23)C(=O)N1)C(N)=O` [SEQ ID NO: 469] (H-DCLGWFKGCDPDNDKCCENYKCNRREQWCKYKL-NH2; disulfide 2-17, 9-22, 16-29), the IC50 on hNav1.7 is 9.25 µM; on hNav1.5, 10.4 µM; at hNav1.4 it was 11 µM; at hNav1.3, 4.92 µM.

For the compound `CC(C)C[C@@H]1NC(=O)[C@@H](NC(=O)[C@@H](N)CC(=O)O)CSSC[C@@H]2NC(=O)[C@@H]3CSSC[C@@H](C(=O)N[C@@H](CCCCN)C(=O)N[C@@H](Cc4ccc(O)cc4)C(=O)N[C@@H](CCCCN)C(=O)N[C@@H](CC(C)C)C(=O)N[C@@H](Cc4c[nH]c5ccccc45)C(=O)N[C@@H](CCCCN)C(=O)O)NC(=O)[C@H](Cc4c[nH]c5ccccc45)NC(=O)[C@H](CCCCN)NC(=O)[C@H](CC(=O)O)NC(=O)[C@H](CCCNC(=N)N)NC(=O)[C@H](CCCNC(=N)N)NC(=O)[C@H](CC(N)=O)NC(=O)[C@H](CSSC[C@H](NC(=O)CNC(=O)[C@H](CCCCN)NC(=O)[C@H](Cc4ccccc4)NC(=O)[C@H](Cc4c[nH]c5ccccc45)NC(=O)CNC1=O)C(=O)N[C@@H](CC(=O)O)C(=O)N1CCC[C@H]1C(=O)N[C@@H](CC(=O)O)C(=O)N[C@@H](CC(N)=O)C(=O)N[C@@H](CC(=O)O)C(=O)N[C@@H](CCCCN)C(=O)N3)NC(=O)[C@H](CCCCN)NC(=O)[C@H](Cc1ccc(O)cc1)NC(=O)[C@H](CC(N)=O)NC(=O)[C@H](CCC(=O)O)NC2=O` [SEQ ID NO: 473] (H-DCLGWFKGCDPDNDKCCENYKCNRRDKWCKYKLWK-OH; disulfide 2-17, 9-22, 16-29), the IC50 turned out to be 10.4 µM on hNav1.7, 7.6 µM at hNav1.5, 10 µM at hNav1.4 and 3.5 µM on hNav1.3.

Turning to `CC[C@H](C)[C@@H]1NC(=O)[C@@H]2CSSC[C@@H]3NC(=O)[C@H](C(C)C)NC(=O)[C@H](CC(C)C)NC(=O)[C@H](CC(N)=O)NC(=O)[C@@H]4CCCN4C(=O)[C@H](CCCNC(=N)N)NC(=O)[C@H](CSSC[C@H](NC(=O)[C@@H](N)CC(=O)O)C(=O)N[C@@H](CC(C)C)C(=O)NCC(=O)N[C@@H](Cc4ccccc4)C(=O)N[C@@H](CCSC)C(=O)N[C@@H](CCCNC(=N)N)C(=O)N[C@@H](CCCCN)C(=O)N2)NC(=O)[C@H](CSSC[C@@H](C(=O)N[C@@H](CCCCN)C(=O)N[C@@H](Cc2ccc(O)cc2)C(=O)N[C@H](C(=O)N[C@@H](Cc2ccccc2)C(N)=O)C(C)C)NC(=O)[C@H](Cc2c[nH]c4ccccc24)NC(=O)[C@H](CCC(=O)O)NC(=O)[C@H](Cc2cnc[nH]2)NC(=O)[C@H]([C@@H](C)O)NC(=O)[C@H](CCCNC(=N)N)NC(=O)[C@H](CO)NC3=O)NC(=O)[C@H](CCCCN)NC(=O)[C@H](CC(=O)O)NC(=O)[C@H](CC(N)=O)NC(=O)[C@H](CC(=O)O)NC(=O)[C@@H]2CCCN2C1=O` [[Glu28]GpTx-1(1-34)] (H-DCLGFMRKCIPDNDKCCRPNLVCSRTHEWCKYVF-NH2; disulfide 2-17, 9-23, 16-30), in series [1], the “locomotor activity in the open field analysis” value is given as “significantly reduced locomotor activity”, the total basic movement entry is “significantly reduced”, the total fine movement entry is “significantly reduced” and the total rearing entry is reported as “significantly reduced”. Further, the total time rearing result in series [1] is listed as “significantly reduced”.

Consider `CC[C@H](C)[C@@H]1NC(=O)[C@@H]2CSSC[C@@H]3NC(=O)[C@H](C(C)C)NC(=O)[C@H](CC(C)C)NC(=O)[C@H](CC(N)=O)NC(=O)[C@@H]4CCCN4C(=O)[C@H](CCCNC(=N)N)NC(=O)[C@H](CSSC[C@H](NC(=O)[C@@H](N)CC(=O)O)C(=O)N[C@@H](CC(C)C)C(=O)NCC(=O)N[C@@H](Cc4ccccc4)C(=O)N[C@@H](CCSC)C(=O)N[C@@H](CCCNC(=N)N)C(=O)N[C@@H](CCCCN)C(=O)N2)NC(=O)[C@H](CSSC[C@@H](C(=O)N[C@@H](CCCCN)C(=O)N[C@@H](Cc2ccc(O)cc2)C(=O)N[C@H](C(=O)N[C@@H](Cc2ccccc2)C(N)=O)C(C)C)NC(=O)[C@H](CCC(=O)O)NC(=O)[C@H](CCCCN)NC(=O)[C@H](Cc2cnc[nH]2)NC(=O)[C@H]([C@@H](C)O)NC(=O)[C@H](CCCNC(=N)N)NC(=O)[C@H](CO)NC3=O)NC(=O)[C@H](CCCCN)NC(=O)[C@H](CC(=O)O)NC(=O)[C@H](CC(N)=O)NC(=O)[C@H](CC(=O)O)NC(=O)[C@@H]2CCCN2C1=O` [[Glu29]GpTx-1(1-34)] (H-DCLGFMRKCIPDNDKCCRPNLVCSRTHKECKYVF-NH2; disulfide 2-17, 9-23, 16-30), for which, in series [1], the total basic movement result is “did not significantly decrease”, the total fine movement entry is recorded as “not significantly affected”, the total rearing entry is “did not significantly decrease” and the total time rearing result is given as “not significantly affected”.
